# Source: patent US20140221361A1, “C-19 MODIFIED TRITERPENOIDS WITH HIV MATURATION INHIBITORY ACTIVITY” (priority 2013, published 2014)
# Tested on: recombinant NL4-3 virus (Renilla luciferase in nef, Gag P373S)
# Assay: HIV cell culture assay (luciferase reporter, MT-2 cells)
# Format: cell-based, HIV-1
# Conditions: MT-2 cells infected for 4-5 days with NLRluc recombinants; luciferase activity; serial dilutions of inhibitor
# Summary of the method: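 MT-2 cells infected with recombinant NL4-3 carrying Renilla luciferase in place of part of nef and Gag P373S, virus made by 293T transfection. Infection ran 4-5 days with serial inhibitor dilutions. Antiviral activity read as luciferase activity (Dual Luciferase reagents mixed with lysis buffer).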
row,SMILES,EC50 [nM]
1,"CC(CO)[C@@H]1CC[C@]2(NCCN3CCS(=O)(=O)CC3)CC[C@]3(C)[C@H](CC[C@@H]4[C@@]5(C)CC=C(c6ccc(C(=O)O)cc6)C(C)(C)[C@@H]5CC[C@]43C)[C@@H]12 (single isomer, unassigned) [Example B6]",3.75
2,"CC(O)(CO)[C@@H]1CC[C@]2(NCCN3CCS(=O)(=O)CC3)CC[C@]3(C)[C@H](CC[C@@H]4[C@@]5(C)CC=C(c6ccc(C(=O)O)cc6)C(C)(C)[C@@H]5CC[C@]43C)[C@@H]12 (single isomer, unassigned) [Example B9]",2.15

# Same assay, conditions: Renilla, NL43, MT-2 cells infected for 4-5 days with NLRluc recombinants; luciferase activity; serial dilutions of inhibitor
row,SMILES,EC50 [nM]
1,"C=C(CNCCC(=O)O)[C@@H]1CC[C@]2(C(=O)O)CC[C@]3(C)[C@H](CC[C@@H]4[C@@]5(C)CC=C(c6ccc(C(=O)O)cc6)C(C)(C)[C@@H]5CC[C@]43C)[C@@H]12 [Example 6, (1R,3aS,5aR,5bR,7aR,11aS,11bR,13aR,13bS)-1-(3-(2-carboxyethylamino)prop-1-en-2-yl)-9-(4-carboxyphenyl)-5a,5b,8,8,11a-pentamethyl-2,3,3a,4,5,5a,5b,6,7,7a,8,11,11a,11b,12,13,13a,13b-octadecahydro-1H-cyclopenta[a]chrysene-3a-carboxylic acid]",4000
2,"COC(C)(C)[C@@H]1CC[C@]2(NCCN3CCS(=O)(=O)CC3)CC[C@]3(C)[C@H](CC[C@@H]4[C@@]5(C)CC=C(c6ccc(C(=O)O)cc6)C(C)(C)[C@@H]5CC[C@]43C)[C@@H]12 [Example B4, 4-((1R,3aS,5aR,5bR,7aR,11aS,11bR,13aR,13bS)-3a-((2-(1,1-dioxidothiomorpholino)ethyl)amino)-1-(2-methoxypropan-2-yl)-5a,5b,8,8,11a-pentamethyl-2,3,3a,4,5,5a,5b,6,7,7a,8,11,11a,11b,12,13,13a,13b-octadecahydro-1H-cyclopenta[a]chrysen-9-yl)benzoic acid]",2.06
3,"C=C(CNCCN(C)C)[C@@H]1CC[C@]2(C(=O)NCCC(=O)O)CC[C@]3(C)[C@H](CC[C@@H]4[C@@]5(C)CC=C(c6ccc(C(=O)O)cc6)C(C)(C)[C@@H]5CC[C@]43C)[C@@H]12 [Example 9, 4-((1R,3aS,5aR,5bR,7aR,11aS,11bR,13aR,13bS)-3a-(2-carboxyethylcarbamoyl)-1-(3-(2-(dimethylamino)ethylamino)prop-1-en-2-yl)-5a,5b,8,8,11a-pentamethyl-2,3,3a,4,5,5a,5b,6,7,7a,8,11,11a,11b,12,13,13a,13b-octadecahydro-1H-cyclopenta[a]chrysen-9-yl)benzoic acid]",90
4,"CC1([C@@H]2CC[C@]3(NCCN4CCS(=O)(=O)CC4)CC[C@]4(C)[C@H](CC[C@@H]5[C@@]6(C)CC=C(c7ccc(C(=O)O)c(F)c7)C(C)(C)[C@@H]6CC[C@]54C)[C@@H]23)CO1 (stereo partly drawn) [Example A3, 4-((1R,3aS,5aR,5bR,7aR,11aS,11bR,13aR,13bS)-3a-((2-(1,1-dioxidothiomorpholino)ethyl)amino)-5a,5b,8,8,11a-pentamethyl-1-(2-methyloxiran-2-yl)-2,3,3a,4,5,5a,5b,6,7,7a,8,11,11a,11b,12,13,13a,13b-octadecahydro-1H-cyclopenta[a]chrysen-9-yl)-2-fluorobenzoic acid]",10
5,"CNC(=O)N[C@@H]1CC[C@]2(NCCN3CCS(=O)(=O)CC3)CC[C@]3(C)[C@H](CC[C@@H]4[C@@]5(C)CC=C(c6ccc(C(=O)O)cc6)C(C)(C)[C@@H]5CC[C@]43C)[C@@H]12 [Example B29, 4-((1R,3aR,5aR,5bR,7aR,11aS,11bR,13aR,13bS)-3a-((2-(1,1-dioxidothiomorpholino)ethyl)amino)-5a,5b,8,8,11a-pentamethyl-1-(3-methylureido)-2,3,3a,4,5,5a,5b,6,7,7a,8,11,11a,11b,12,13,13a,13b-octadecahydro-1H-cyclopenta[a]chrysen-9-yl)benzoic acid]",30
6,"COCC(C)[C@@H]1CC[C@]2(NCCN3CCS(=O)(=O)CC3)CC[C@]3(C)[C@H](CC[C@@H]4[C@@]5(C)CC=C(c6ccc(C(=O)O)cc6)C(C)(C)[C@@H]5CC[C@]43C)[C@@H]12 (stereo partly drawn) [Example B7, 4-((1R,3aS,5aR,5bR,7aR,11aS,11bR,13aR,13bR)-3a-((2-(1,1-dioxidothiomorpholino)ethyl)amino)-1-(1-methoxypropan-2-yl)-5a,5b,8,8,11a-pentamethyl-2,3,3a,4,5,5a,5b,6,7,7a,8,11,11a,11b,12,13,13a,13b-octadecahydro-1H-cyclopenta[a]chrysen-9-yl)benzoic acid]",0.945
7,"CC([C@@H]1CC[C@]2(NCCN3CCS(=O)(=O)CC3)CC[C@]3(C)[C@H](CC[C@@H]4[C@@]5(C)CC=C(c6ccc(C(=O)O)cc6)C(C)(C)[C@@H]5CC[C@]43C)[C@@H]12)N1CCCC1=O (stereo partly drawn) [Example B32, 4-((1R,3aS,5aR,5bR,7aR,11aS,11bR,13aR,13bS)-3a-((2-(1,1-dioxidothiomorpholino)ethyl)amino)-5a,5b,8,8,11a-pentamethyl-1-(1-(2-oxopyrrolidin-1-yl)ethyl)-2,3,3a,4,5,5a,5b,6,7,7a,8,11,11a,11b,12,13,13a,13b-octadecahydro-1H-cyclopenta[a]chrysen-9-yl)benzoic acid]",2.84
8,"C=C(COCCN1CCOCC1)[C@@H]1CC[C@]2(C(=O)O)CC[C@]3(C)[C@H](CC[C@@H]4[C@@]5(C)CC=C(c6ccc(C(=O)O)cc6)C(C)(C)[C@@H]5CC[C@]43C)[C@@H]12 [Example 11, (1R,3aS,5aR,5bR,7aR,11aS,11bR,13aR,13bS)-9-(4-carboxyphenyl)-5a,5b,8,8,11a-pentamethyl-1-(3-(2-morpholinoethoxy)prop-1-en-2-yl)-2,3,3a,4,5,5a,5b,6,7,7a,8,11,11a,11b,12,13,13a,13b-octadecahydro-1H-cyclopenta[a]chrysene-3a-carboxylic acid]",20
9,"CC1(C)C(c2ccc(C(=O)O)cc2)=CC[C@]2(C)[C@H]3CC[C@@H]4[C@H]5[C@H](C(=O)CO)CC[C@]5(NCCN5CCS(=O)(=O)CC5)CC[C@@]4(C)[C@]3(C)CC[C@@H]12 [Example B25, 4-((1R,3aS,5aR,5bR,7aR,11aS,11bR,13aR,13bS)-3a-((2-(1,1-dioxidothiomorpholino)ethyl)amino)-1-(2-hydroxyacetyl)-5a,5b,8,8,11a-pentamethyl-2,3,3a,4,5,5a,5b,6,7,7a,8,11,11a,11b,12,13,13a,13b-octadecahydro-1H-cyclopenta[a]chrysen-9-yl)benzoic acid]",110
10,"COCC(C)(OC)[C@@H]1CC[C@]2(NCCN3CCS(=O)(=O)CC3)CC[C@]3(C)[C@H](CC[C@@H]4[C@@]5(C)CC=C(c6ccc(C(=O)O)cc6)C(C)(C)[C@@H]5CC[C@]43C)[C@@H]12 (single isomer, unassigned) [Example B2]",1.05
11,"CNC(C)[C@@H]1CC[C@]2(NCCN3CCS(=O)(=O)CC3)CC[C@]3(C)[C@H](CC[C@@H]4[C@@]5(C)CC=C(c6ccc(C(=O)O)cc6)C(C)(C)[C@@H]5CC[C@]43C)[C@@H]12 (stereo partly drawn) [Example B35, 4-((1R,3aS,5aR,5bR,7aR,11aS,11bR,13aR,13bS)-3a-((2-(1,1-dioxidothiomorpholino)ethyl)amino)-5a,5b,8,8,11a-pentamethyl-1-(1-(methylamino)ethyl)-2,3,3a,4,5,5a,5b,6,7,7a,8,11,11a,11b,12,13,13a,13b-octadecahydro-1H-cyclopenta[a]chrysen-9-yl)benzoic acid]",4.24
12,"CC(C)(O)[C@@H]1CC[C@]2(NCCN3CCS(=O)(=O)CC3)CC[C@]3(C)[C@H](CC[C@@H]4[C@@]5(C)CC=C(C6=CCC(C(=O)O)CC6)C(C)(C)[C@@H]5CC[C@]43C)[C@@H]12 (stereo partly drawn) [Example 22, 4-((1R,3aS,5aR,5bR,7aR,11aS,11bR,13aR,13bS)-3a-((2-(1,1-dioxidothiomorpholino)ethyl)amino)-1-(2-hydroxypropan-2-yl)-5a,5b,8,8,11a-pentamethyl-2,3,3a,4,5,5a,5b,6,7,7a,8,11,11a,11b,12,13,13a,13b-octadecahydro-1H-cyclopenta[a]chrysen-9-yl)cyclohex-3-enecarboxylic acid]",0.519
13,"CC(=O)[C@@H]1CC[C@]2(N)CC[C@]3(C)[C@H](CC[C@@H]4[C@@]5(C)CC=C(c6ccc(C(=O)O)cc6)C(C)(C)[C@@H]5CC[C@]43C)[C@@H]12 [Example B46, 4-((1R,3aS,5aR,5bR,7aR,11aS,11bR,13aR,13bS)-1-acetyl-3a-amino-5a,5b,8,8,11a-pentamethyl-2,3,3a,4,5,5a,5b,6,7,7a,8,11,11a,11b,12,13,13a,13b-octadecahydro-1H-cyclopenta[a]chrysen-9-yl)benzoic acid]",290
14,"CC(CF)[C@@H]1CC[C@]2(NCCN3CCS(=O)(=O)CC3)CC[C@]3(C)[C@H](CC[C@@H]4[C@@]5(C)CC=C(c6ccc(C(=O)O)cc6)C(C)(C)[C@@H]5CC[C@]43C)[C@@H]12 (single isomer, unassigned) [Example B8]",2.51
15,"C=C(COCCN1CCOCC1)[C@@H]1CC[C@]2(C(=O)NCCNCC(=O)O)CC[C@]3(C)[C@H](CC[C@@H]4[C@@]5(C)CC=C(c6ccc(C(=O)O)cc6)C(C)(C)[C@@H]5CC[C@]43C)[C@@H]12 [Example 17, 4-((1R,3aS,5aR,5bR,7aR,11aS,11bR,13aR,13bS)-3a-(2-(carboxymethylamino)ethylcarbamoyl)-5a,5b,8,8,11a-pentamethyl-1-(3-(2-morpholinoethoxy)prop-1-en-2-yl)-2,3,3a,4,5,5a,5b,6,7,7a,8,11,11a,11b,12,13,13a,13b-octadecahydro-1H-cyclopenta[a]chrysen-9-yl)benzoic acid]",80
